Legend:
sugar beet = test: Test B pre/postemergence sugar beet; assay type: in vivo, Beta vulgaris
Summary of the method: (§1)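 Response is a visual 0-to-10 score relative to untreated plants, where 0 means no effect and 10 means complete control, taken twelve to sixteen days after application. Treatments went onto soil at planting and onto foliage of 1- to 4-leaf plants, using a surfactant-containing non-phytotoxic solvent.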

blackgrass = test: Test B pre/postemergence blackgrass; assay type: in vivo, Alopecurus myosuroides
Summary of the method: as §1

smallflower flatsedge = test: Test B flood test smallflower flatsedge; assay type: in vivo, Cyperus difformis
Summary of the method: (§2)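 Plants were grown to the 2-leaf stage before treatment with test chemical, then held in a greenhouse for twelve to sixteen days. Injury was visually rated against untreated controls on a 0–10 scale, where 0 is no effect and 10 is complete control.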

velvetleaf = test: Test B pre/postemergence velvetleaf; assay type: in vivo, Abutilon theophrasti
Summary of the method: as §1

rape = test: Test B pre/postemergence rape; assay type: in vivo, Brassica napus
Summary of the method: as §1

duck salad = test: Test B flood test duck salad; assay type: in vivo, Heteranthera limosa
Summary of the method: as §2

morningglory = test: Test B pre/postemergence morningglory; assay type: in vivo, Ipomoea hederacea
Summary of the method: as §1

pigweed = test: Test B pre/postemergence pigweed; assay type: in vivo, Amaranthus retroflexus
Summary of the method: as §1

cocklebur = test: Test B pre/postemergence cocklebur; assay type: in vivo, Xanthium strumarium
Summary of the method: as §1

crabgrass = test: Test B pre/postemergence crabgrass; assay type: in vivo, Digitaria sanguinalis
Summary of the method: as §1

purple nutsedge = test: Test B pre/postemergence purple nutsedge; assay type: in vivo, Cyperus rotundus
Summary of the method: as §1

surinam grass = test: Test B pre/postemergence surinam grass; assay type: in vivo, Brachiaria decumbens
Summary of the method: as §1

giant foxtail = test: Test B pre/postemergence giant foxtail; assay type: in vivo, Setaria faberii
Summary of the method: as §1

corn = test: Test B pre/postemergence corn; assay type: in vivo, Zea mays
Summary of the method: as §1

wheat = test: Test B pre/postemergence wheat; assay type: in vivo, Triticum aestivum
Summary of the method: as §1

rice = test: Test B flood test rice; assay type: in vivo, Oryza sativa
Summary of the method: as §2

[1] = Preemergence, Rate 62 g/ha, scale of 0 to 10 where 0 is no effect and 10 is complete control
[2] = Preemergence, Rate 250 g/ha, scale of 0 to 10 where 0 is no effect and 10 is complete control
[3] = Preemergence, Rate 500 g/ha, scale of 0 to 10 where 0 is no effect and 10 is complete control
[4] = Rate 62 g/ha, Postemergence, scale 0 to 10 (0 no effect, 10 complete control)
[5] = Rate 125 g/ha, Postemergence, scale of 0 to 10 where 0 is no effect and 10 is complete control
[6] = Rate 250 g/ha, Postemergence, scale of 0 to 10 where 0 is no effect and 10 is complete control
[7] = Rate 500 g/ha, Postemergence, scale 0 to 10, 0 no effect, 10 complete control
[8] = Rate 62 g/ha, headed Pre-emergence (flood test species), scale 0 to 10 (0 no effect, 10 complete control)
[9] = Rate 125 g/ha, Pre-emergence, flood test species, scale 0 to 10 where 0 is no effect and 10 is complete control
[10] = Rate 250 g/ha, Pre-emergence, flood-test species, scale 0 to 10, 0 is no effect, 10 is complete control
[11] = Rate 500 g/ha, Pre-emergence, flood test species, scale 0 to 10 (0 no effect, 10 complete control)

CC(C)N(C(=O)n1oc(=O)n(Cc2ccccc2-c2ccccc2)c1=O)c1ccc(F)cc1 [Compound 313]
3: Morningglory plant response rating (morningglory; [5]) | Plant response rating, Morningglory (morningglory; [6])
2: Morningglory plant response rating (morningglory; [4]) | Plant response rating, Redroot pigweed (pigweed; [6])
0: Sugarbeets plant response rating (sugar beet; [1]) | Sugarbeets plant response rating (0 to 10 scale) (sugar beet; Preemergence, Rate 125 g/ha) | Sugarbeets plant response rating (sugar beet; [2]) | Sugarbeets plant response rating (sugar beet; [3]) | Sugarbeets plant response rating (sugar beet; [4]) | Sugarbeets plant response rating (sugar beet; [5]) | Plant response rating, Sugarbeets (sugar beet; [6]) | Blackgrass plant response rating (blackgrass; [1]) | Blackgrass plant response rating (0 to 10 scale) (blackgrass; Preemergence, Rate 125 g/ha) | Blackgrass plant response rating (blackgrass; [2]) | Blackgrass plant response rating (blackgrass; [3]) | Blackgrass plant response rating (blackgrass; [4]) | Blackgrass plant response rating (blackgrass; [5]) | Plant response rating, Blackgrass (blackgrass; [6]) | Blackgrass plant response rating (blackgrass; [7]) | S. Flatsedge plant response rating (smallflower flatsedge; [8]) | S. Flatsedge plant response rating (smallflower flatsedge; [9]) | S. Flatsedge plant response rating (smallflower flatsedge; [10]) | S. Flatsedge plant response rating (smallflower flatsedge; [11]) | Velvetleaf plant response rating (velvetleaf; [1]) | Velvetleaf plant response rating (0 to 10 scale) (velvetleaf; Preemergence, Rate 125 g/ha) | Velvetleaf plant response rating (velvetleaf; [2]) | Velvetleaf plant response rating (velvetleaf; [3]) | Velvetleaf plant response rating (velvetleaf; [4]) | Velvetleaf plant response rating (velvetleaf; [5]) | Plant response rating, Velvetleaf (velvetleaf; [6]) | Rape plant response rating (rape; [1]) | Rape plant response rating (0 to 10 scale) (rape; Preemergence, Rate 125 g/ha) | Rape plant response rating (rape; [2]) | Rape plant response rating (rape; [3]) | Rape plant response rating (rape; [4]) | Rape plant response rating (rape; [5]) | Plant response rating, Rape (rape; [6]) | Ducksalad plant response rating (duck salad; [8]) | Ducksalad plant response rating (duck salad; [9]) | Ducksalad plant response rating (duck salad; [10]) | Ducksalad plant response rating (duck salad; [11]) | Morningglory plant response rating (morningglory; [1]) | Morningglory plant response rating (0 to 10 scale) (morningglory; Preemergence, Rate 125 g/ha) | Morningglory plant response rating (morningglory; [2]) | Morningglory plant response rating (morningglory; [3]) | Redroot pigweed plant response rating (pigweed; [1]) | Redroot pigweed plant response rating (0 to 10 scale) (pigweed; Preemergence, Rate 125 g/ha) | Redroot pigweed plant response rating (pigweed; [2]) | Redroot pigweed plant response rating (pigweed; [3]) | Redroot pigweed plant response rating (pigweed; [4]) | Redroot pigweed plant response rating (pigweed; [5]) | Cocklebur plant response rating (cocklebur; [1]) | Cocklebur plant response rating (0 to 10 scale) (cocklebur; Preemergence, Rate 125 g/ha) | Cocklebur plant response rating (cocklebur; [2]) | Cocklebur plant response rating (cocklebur; [3]) | Cocklebur plant response rating (cocklebur; [4]) | Cocklebur plant response rating (cocklebur; [5]) | Plant response rating, Cocklebur (cocklebur; [6]) | Cocklebur plant response rating (cocklebur; [7]) | Crabgrass plant response rating (crabgrass; [1]) | Crabgrass plant response rating (0 to 10 scale) (crabgrass; Preemergence, Rate 125 g/ha) | Crabgrass plant response rating (crabgrass; [2]) | Crabgrass plant response rating (crabgrass; [3]) | Crabgrass plant response rating (crabgrass; [4]) | Crabgrass plant response rating (crabgrass; [5]) | Plant response rating, Crabgrass (crabgrass; [6]) | Nutsedge plant response rating (purple nutsedge; [1]) | Nutsedge plant response rating (0 to 10 scale) (purple nutsedge; Preemergence, Rate 125 g/ha) | Nutsedge plant response rating (purple nutsedge; [2]) | Nutsedge plant response rating (purple nutsedge; [3]) | Nutsedge plant response rating (purple nutsedge; [4]) | Nutsedge plant response rating (purple nutsedge; [5]) | Plant response rating, Nutsedge (purple nutsedge; [6]) | B. signalgrass plant response rating (surinam grass; [1]) | B. signalgrass plant response rating (0 to 10 scale, 0 is no effect, 10 is complete control) (surinam grass; Preemergence, Rate 125 g/ha) | B. signalgrass plant response rating (surinam grass; [2]) | B. signalgrass plant response rating (surinam grass; [3]) | B. signalgrass plant response rating (surinam grass; [4]) | B. signalgrass plant response rating (surinam grass; [5]) | Plant response rating, B. signalgrass (surinam grass; [6]) | B. signalgrass plant response rating (surinam grass; [7]) | Giant foxtail plant response rating (giant foxtail; [1]) | Giant foxtail plant response rating (0 to 10 scale) (giant foxtail; Preemergence, Rate 125 g/ha) | Giant foxtail plant response rating (giant foxtail; [2]) | Giant foxtail plant response rating (giant foxtail; [3]) | Giant foxtail plant response rating (giant foxtail; [4]) | Giant foxtail plant response rating (giant foxtail; [5]) | Plant response rating, Giant foxtail (giant foxtail; [6]) | Corn plant response rating (corn; [1]) | Corn plant response rating (0 to 10 scale) (corn; Preemergence, Rate 125 g/ha) | Corn plant response rating (corn; [2]) | Corn plant response rating (corn; [3]) | Corn plant response rating (corn; [4]) | Corn plant response rating (corn; [5]) | Plant response rating, Corn (corn; [6]) | Corn plant response rating (corn; [7]) | Wheat plant response rating (wheat; [1]) | Wheat plant response rating (0 to 10 scale) (wheat; Preemergence, Rate 125 g/ha) | Wheat plant response rating (wheat; [2]) | Wheat plant response rating (wheat; [3]) | Wheat plant response rating (wheat; [4]) | Wheat plant response rating (wheat; [5]) | Plant response rating, Wheat (wheat; [6]) | Rice plant response rating (rice; [8]) | Rice plant response rating (rice; [9]) | Rice plant response rating (rice; [10]) | Rice plant response rating (rice; [11])
